From the NIST ThermoML archive (doi:10.1021/je500977g)

Test: mn = molality of the nth substance listed, in mol/kg
Conditions: Liquid

C[N+](C)(C)[O-] [trimethylamine oxide] + O
mass density [kg/m3]
Conditions	278.15 K	288.15 K	298.15 K	308.15 K	323.15 K
101 kPa, Vibrating tube method, m1 = 0.0875	1000.16	999.28	997.22	994.21	988.2
101 kPa, Vibrating tube method, m1 = 0.1707	1000.36	999.46	997.4	994.38	988.37
101 kPa, Vibrating tube method, m1 = 0.2465	1000.55	999.63	997.57	994.54	988.53
101 kPa, Vibrating tube method, m1 = 0.3259	1000.75	999.82	997.74	994.71	988.7
101 kPa, Vibrating tube method, m1 = 0.4018	1000.95	1000	997.91	994.88	988.86
101 kPa, Vibrating tube method, m1 = 0.5862	1001.48	1000.47	998.35	995.31	989.27
101 kPa, Vibrating tube method, m1 = 0.7963	1002.11	1001.02	998.86	995.8	989.75
101 kPa, Vibrating tube method, m1 = 1.039	1002.89	1001.71	999.49	996.41	990.34
101 kPa, Vibrating tube method, m1 = 1.373	1004.01	1002.7	1000.4	997.27	991.15
101 kPa, Vibrating tube method, m1 = 1.923	1006.05	1004.48	1002.01	998.77	992.62
101 kPa, Vibrating tube method, m1 = 3.259	1011.69	1009.4	1006.44	1002.83	996.37
101 kPa, Vibrating tube method, m1 = 4.325	1016.41	1013.58	1010.2	1006.27	999.45
10000 kPa, Constant-volume piezometry, m1 = 0.1707	1005.1	1003.98	1001.77	998.64	992.59
10000 kPa, Constant-volume piezometry, m1 = 0.3259	1005.43	1004.27	1002.05	998.93	992.87
10000 kPa, Constant-volume piezometry, m1 = 0.5862	1006.05	1004.81	1002.57	999.44	993.35
10000 kPa, Constant-volume piezometry, m1 = 1.039	1007.25	1005.85	1003.56	1000.4	994.29
10000 kPa, Constant-volume piezometry, m1 = 1.373	1008.19	1006.74	1004.38	1001.17	995.02
10000 kPa, Constant-volume piezometry, m1 = 1.923	1009.95	1008.34	1005.83	1002.54	996.38
10000 kPa, Constant-volume piezometry, m1 = 3.259	1015.17	1012.89	1009.93	1006.31	999.89
10000 kPa, Constant-volume piezometry, m1 = 4.325	1019.59	1016.87	1013.44	1009.52	1002.81
25000 kPa, Constant-volume piezometry, m1 = 0.1707	1012.1	1010.63	1008.19	1004.94	998.81
25000 kPa, Constant-volume piezometry, m1 = 0.3259	1012.31	1010.83	1008.39	1005.15	999.01
25000 kPa, Constant-volume piezometry, m1 = 0.5862	1012.75	1011.2	1008.79	1005.53	999.37
25000 kPa, Constant-volume piezometry, m1 = 1.039	1013.68	1012.01	1009.58	1006.27	1000.14
25000 kPa, Constant-volume piezometry, m1 = 1.373	1014.44	1012.71	1010.25	1006.92	1000.75
25000 kPa, Constant-volume piezometry, m1 = 1.923	1015.88	1014.05	1011.48	1008.08	1001.93
25000 kPa, Constant-volume piezometry, m1 = 3.259	1020.33	1018.05	1015.13	1011.45	1005.1
25000 kPa, Constant-volume piezometry, m1 = 4.325	1024.4	1021.69	1018.32	1014.35	1007.83
50000 kPa, Constant-volume piezometry, m1 = 0.1707	1023.24	1021.25	1018.48	1015.02	1008.75
50000 kPa, Constant-volume piezometry, m1 = 0.3259	1023.31	1021.31	1018.55	1015.1	1008.83
50000 kPa, Constant-volume piezometry, m1 = 0.5862	1023.5	1021.47	1018.73	1015.28	1009.01
50000 kPa, Constant-volume piezometry, m1 = 1.039	1023.97	1021.88	1019.17	1015.72	1009.49
50000 kPa, Constant-volume piezometry, m1 = 1.373	1024.42	1022.31	1019.6	1016.14	1009.9
50000 kPa, Constant-volume piezometry, m1 = 1.923	1025.37	1023.22	1020.48	1016.98	1010.79
50000 kPa, Constant-volume piezometry, m1 = 3.259	1028.7	1026.33	1023.44	1019.69	1013.38
50000 kPa, Constant-volume piezometry, m1 = 4.325	1032.12	1029.39	1026.18	1022.07	1015.77
75000 kPa, Constant-volume piezometry, m1 = 0.1707	1033.79	1031.35	1028.27	1024.62	1018.2
75000 kPa, Constant-volume piezometry, m1 = 0.3259	1033.7	1031.27	1028.22	1024.58	1018.18
75000 kPa, Constant-volume piezometry, m1 = 0.5862	1033.63	1031.21	1028.19	1024.56	1018.19
75000 kPa, Constant-volume piezometry, m1 = 1.039	1033.68	1031.28	1028.3	1024.68	1018.41
75000 kPa, Constant-volume piezometry, m1 = 1.373	1033.85	1031.46	1028.51	1024.9	1018.64
75000 kPa, Constant-volume piezometry, m1 = 1.923	1034.37	1031.97	1029.06	1025.43	1019.23
75000 kPa, Constant-volume piezometry, m1 = 3.259	1036.77	1034.24	1031.32	1027.51	1021.32
75000 kPa, Constant-volume piezometry, m1 = 4.325	1039.49	1036.73	1033.57	1029.5	1023.38
100000 kPa, Constant-volume piezometry, m1 = 0.1707	1043.78	1040.95	1037.61	1033.77	1027.22
100000 kPa, Constant-volume piezometry, m1 = 0.3259	1043.57	1040.74	1037.41	1033.59	1027.09
100000 kPa, Constant-volume piezometry, m1 = 0.5862	1043.26	1040.48	1037.18	1033.39	1026.94
100000 kPa, Constant-volume piezometry, m1 = 1.039	1042.96	1040.22	1036.99	1033.25	1026.92
100000 kPa, Constant-volume piezometry, m1 = 1.373	1042.87	1040.16	1036.98	1033.26	1027
100000 kPa, Constant-volume piezometry, m1 = 1.923	1043.01	1040.3	1037.22	1033.48	1027.3
100000 kPa, Constant-volume piezometry, m1 = 3.259	1044.64	1041.8	1038.74	1034.99	1028.88
100000 kPa, Constant-volume piezometry, m1 = 4.325	1046.85	1043.78	1040.54	1036.64	1030.78
